Assay results from patent publication US8952024B2, “Herbicidal pyrimidone derivatives” (E I du Pont de Nemours and Company, priority 2009, dated 2015).

Key:
Assay in all cases: Test B pre-/postemergence plant response
Assay type in all cases: in vivo
corn (Zea mays) = system: corn (Zea mays)
Procedure, shortened: (§1)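 Steps: sow seed in loam–sand soil and spray preemergence, or grow plants in peat-based medium to 1–4 leaves (2–18 cm) and spray postemergence; formulation is non-phytotoxic solvent plus surfactant; hold in greenhouse 13–15 days; score visually vs controls, 0 = no effect, 100 = complete control.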

[1] = system: blackgrass (Alopecurus myosuroides)
Procedure, shortened: as §1

kochia (Kochia scoparia) = system: kochia (Kochia scoparia)
Procedure, shortened: as §1

[2] = system: downy bromegrass (Bromus tectorum)
Procedure, shortened: as §1

wild oat (Avena fatua) = system: wild oat (Avena fatua)
Procedure, shortened: as §1

[3] = system: yellow nutsedge (Cyperus esculentus)
Procedure, shortened: as §1

[4] = system: morningglory (Ipomoea coccinea)
Procedure, shortened: as §1

soybean (Glycine max) = system: soybean (Glycine max)
Procedure, shortened: as §1

[5] = system: woolly cupgrass (Eriochloa villosa)
Procedure, shortened: as §1

[6] = system: large crabgrass (Digitaria sanguinalis)
Procedure, shortened: as §1

[7] = system: velvetleaf (Abutilon theophrasti)
Procedure, shortened: as §1

[8] = system: johnsongrass (Sorghum halepense)
Procedure, shortened: as §1

[9] = system: Surinam grass (Brachiaria decumbens)
Procedure, shortened: as §1

[10] = system: pigweed (Amaranthus retroflexus)
Procedure, shortened: as §1

[11] = system: goosegrass (Eleusine indica)
Procedure, shortened: as §1

[12] = system: lambsquarters (Chenopodium album)
Procedure, shortened: as §1

[13] = system: green foxtail (Setaria viridis)
Procedure, shortened: as §1

[14] = 250 g ai/ha, Preemergence, 0 to 100 scale
[15] = Postemergence, 31 g ai/ha, scale 0 to 100 (0 no effect, 100 complete control)
[16] = Postemergence, 62 g ai/ha, scale 0 (no effect) to 100 (complete control), 13 to 15 days
[17] = Postemergence, 125 g ai/ha, visual rating after 13 to 15 days, scale 0 (no effect) to 100 (complete control)
[18] = Postemergence, 250 g ai/ha, scale 0 to 100
[19] = Preemergence, 31 g ai/ha, scale 0 to 100 (0 no effect, 100 complete control)
[20] = Preemergence, 62 g ai/ha, scale 0 to 100, 0 no effect, 100 complete control
[21] = Preemergence, 125 g ai/ha, 0 to 100 scale

**Q.** Which results are given for `Cc1cccc(-n2c(-c3ccccc3)ncc(C(=O)C3=C(O)CCCC3=O)c2=O)c1C` [Compound 27]?
**A.** Plant response rating, Corn (corn (Zea mays); [14]): 0; Plant response rating, Corn (corn (Zea mays); [15]): 35; Plant response rating, Corn (corn (Zea mays); [16]): 40; Plant response rating, Corn (corn (Zea mays); [17]): 50; Corn plant response rating (corn (Zea mays); [18]): 70; Plant response rating, Corn (corn (Zea mays); [19]): 0; Plant response rating, Corn (corn (Zea mays); [20]): 0; Corn plant response rating (corn (Zea mays); [21]): 0; Plant response rating, Blackgrass [1, 14]: 30; Plant response rating, Blackgrass [1, 15]: 0; Plant response rating, Blackgrass [1, 16]: 5; Plant response rating, Blackgrass [1, 17]: 45; Blackgrass plant response rating [1, 18]: 50; Plant response rating, Blackgrass [1, 19]: 0; Plant response rating, Blackgrass [1, 20]: 0; Blackgrass plant response rating [1, 21]: 10; Plant response rating, Kochia (kochia (Kochia scoparia); [14]): 100; Plant response rating, Kochia (kochia (Kochia scoparia); [17]): 100; Kochia plant response rating (kochia (Kochia scoparia); [18]): 100; Plant response rating, Kochia (kochia (Kochia scoparia); [19]): 100; Plant response rating, Kochia (kochia (Kochia scoparia); [20]): 100; Kochia plant response rating (kochia (Kochia scoparia); [21]): 100; Plant response rating, Bromegrass, Downy [2, 14]: 30; Plant response rating, Bromegrass, Downy [2, 15]: 5; Plant response rating, Bromegrass, Downy [2, 16]: 5; Plant response rating, Bromegrass, Downy [2, 17]: 20; Bromegrass, Downy plant response rating [2, 18]: 30; Plant response rating, Bromegrass, Downy [2, 19]: 0; Plant response rating, Bromegrass, Downy [2, 20]: 0; Bromegrass, Downy plant response rating [2, 21]: 0; Plant response rating, Oat, Wild (wild oat (Avena fatua); [14]): 50; Plant response rating, Oat, Wild (wild oat (Avena fatua); [15]): 45; Plant response rating, Oat, Wild (wild oat (Avena fatua); [16]): 50; Plant response rating, Oat, Wild (wild oat (Avena fatua); [17]): 50; Oat, Wild plant response rating (wild oat (Avena fatua); [18]): 65; Plant response rating, Oat, Wild (wild oat (Avena fatua); [19]): 0; Plant response rating, Oat, Wild (wild oat (Avena fatua); [20]): 0; Oat, Wild plant response rating (wild oat (Avena fatua); [21]): 30; Plant response rating, Nutsedge, Yellow [3, 14]: 90; Plant response rating, Nutsedge, Yellow [3, 15]: 30; Plant response rating, Nutsedge, Yellow [3, 16]: 40; Plant response rating, Nutsedge, Yellow [3, 17]: 50; Nutsedge, Yellow plant response rating [3, 18]: 55; Plant response rating, Nutsedge, Yellow [3, 19]: 0; Plant response rating, Nutsedge, Yellow [3, 20]: 20; Nutsedge, Yellow plant response rating [3, 21]: 30; Plant response rating, Morningglory [4, 14]: 100; Plant response rating, Morningglory [4, 15]: 50; Plant response rating, Morningglory [4, 16]: 80; Plant response rating, Morningglory [4, 17]: 80; Morningglory plant response rating [4, 18]: 90; Plant response rating, Morningglory [4, 19]: 100; Plant response rating, Morningglory [4, 20]: 100; Morningglory plant response rating [4, 21]: 100; Plant response rating, Soybean (soybean (Glycine max); [14]): 90; Plant response rating, Soybean (soybean (Glycine max); [15]): 95; Plant response rating, Soybean (soybean (Glycine max); [16]): 95; Plant response rating, Soybean (soybean (Glycine max); [17]): 95; Soybean plant response rating (soybean (Glycine max); [18]): 100; Plant response rating, Soybean (soybean (Glycine max); [19]): 70; Plant response rating, Soybean (soybean (Glycine max); [20]): 70; Soybean plant response rating (soybean (Glycine max); [21]): 80; Plant response rating, Cupgrass, Woolly [5, 14]: 80; Plant response rating, Cupgrass, Woolly [5, 15]: 60; Plant response rating, Cupgrass, Woolly [5, 16]: 60; Plant response rating, Cupgrass, Woolly [5, 17]: 70; Cupgrass, Woolly plant response rating [5, 18]: 80; Plant response rating, Cupgrass, Woolly [5, 19]: 0; Plant response rating, Cupgrass, Woolly [5, 20]: 0; Cupgrass, Woolly plant response rating [5, 21]: 60; Plant response rating, Crabgrass, Large [6, 14]: 100; Plant response rating, Crabgrass, Large [6, 15]: 50; Plant response rating, Crabgrass, Large [6, 16]: 50; Plant response rating, Crabgrass, Large [6, 17]: 60; Crabgrass, Large plant response rating [6, 18]: 60; Plant response rating, Crabgrass, Large [6, 19]: 5; Plant response rating, Crabgrass, Large [6, 20]: 80; Crabgrass, Large plant response rating [6, 21]: 100; Plant response rating, Velvetleaf [7, 14]: 95; Plant response rating, Velvetleaf [7, 15]: 50; Plant response rating, Velvetleaf [7, 16]: 60; Plant response rating, Velvetleaf [7, 17]: 80; Velvetleaf plant response rating [7, 18]: 90; Plant response rating, Velvetleaf [7, 19]: 55; Plant response rating, Velvetleaf [7, 20]: 85; Velvetleaf plant response rating [7, 21]: 90; Plant response rating, Johnsongrass [8, 14]: 85; Plant response rating, Johnsongrass [8, 15]: 40; Plant response rating, Johnsongrass [8, 16]: 45; Plant response rating, Johnsongrass [8, 17]: 45; Johnsongrass plant response rating [8, 18]: 80; Plant response rating, Johnsongrass [8, 19]: 0; Plant response rating, Johnsongrass [8, 20]: 5; Johnsongrass plant response rating [8, 21]: 50; Plant response rating, Surinam Grass [9, 14]: 95; Plant response rating, Surinam Grass [9, 15]: 50; Plant response rating, Surinam Grass [9, 16]: 70; Plant response rating, Surinam Grass [9, 17]: 80; Surinam Grass plant response rating [9, 18]: 80; Plant response rating, Surinam Grass [9, 19]: 0; Plant response rating, Surinam Grass [9, 20]: 20; Surinam Grass plant response rating [9, 21]: 60; Plant response rating, Pigweed [10, 14]: 100; Plant response rating, Pigweed [10, 15]: 98; Plant response rating, Pigweed [10, 16]: 98; Plant response rating, Pigweed [10, 17]: 100; Pigweed plant response rating [10, 18]: 100; Plant response rating, Pigweed [10, 19]: 100; Plant response rating, Pigweed [10, 20]: 100; Pigweed plant response rating [10, 21]: 100; Plant response rating, Goosegrass [11, 14]: 100; Plant response rating, Goosegrass [11, 15]: 90; Plant response rating, Goosegrass [11, 16]: 90; Plant response rating, Goosegrass [11, 17]: 98; Goosegrass plant response rating [11, 18]: 98; Plant response rating, Goosegrass [11, 19]: 80; Goosegrass plant response rating [11, 21]: 100; Plant response rating, Lambsquarters [12, 14]: 100; Plant response rating, Lambsquarters [12, 15]: 90; Plant response rating, Lambsquarters [12, 16]: 95; Plant response rating, Lambsquarters [12, 17]: 95; Lambsquarters plant response rating [12, 18]: 98; Plant response rating, Lambsquarters [12, 19]: 100; Plant response rating, Lambsquarters [12, 20]: 100; Lambsquarters plant response rating [12, 21]: 100; Plant response rating, Foxtail, Green [13, 14]: 80; Plant response rating, Foxtail, Green [13, 15]: 80; Plant response rating, Foxtail, Green [13, 16]: 80; Plant response rating, Foxtail, Green [13, 17]: 80; Foxtail, Green plant response rating [13, 18]: 90; Plant response rating, Foxtail, Green [13, 19]: 0; Plant response rating, Foxtail, Green [13, 20]: 30; Foxtail, Green plant response rating [13, 21]: 50
